Experimental findings from PubChem BioAssay (NCI) are described below.

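1) Cells in 96-well plates. 2) Compound, 48 h, 5 concentrations. 3) Linear interpolation between surrounding doses. 4) Unreached endpoint = highest concentration. TGI: concentration producing complete growth inhibition.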 Bounds are passed on as bounds.

Some test systems named below: A549 NSCLC; COLO 205 colon; HCT-15 colon; HOP-62 NSCLC; KM12 colon; MALME-3M melanoma; SF-539 CNS; SK-MEL-28 melanoma; SK-OV-3 ovarian; SR leukemia; T-47D breast; UACC-257 melanoma.
Common to all, as to experiment: NCI tumour cell line growth inhibition, 48 h

Regarding `C=CCC1CC(n2cc(C)c(=O)[nH]c2=O)OC1CO[Si](C)(C)C(C)(C)C` (stereo not drawn), the TGI in the test on A549 NSCLC was 26.8 µM; in the test with COLO 205 colon it was 27 µM; in the test with HCT-15 colon, 29.1 µM; with HOP-62 NSCLC, 34.7 µM; with KM12 colon it was 35 µM; in the test on MALME-3M melanoma it was 23.2 µM. Further, the TGI in the test with SF-539 CNS was found to be 28.3 µM; in the test with SK-MEL-28 melanoma it was 30.4 µM; in the test on SK-OV-3 ovarian it was 29.2 µM; in the test on SR leukemia, 11.5 µM; in the test on T-47D breast, 26.8 µM; with UACC-257 melanoma, 33.8 µM.
`CN(C(=O)Cc1ccccc1)n1cnn(CC(=O)OC(C)(C)C)c1=S`: the TGI with A549 NSCLC, in the test on COLO 205 colon, in the test on HCT-15 colon, in the test on HOP-62 NSCLC, in the test on KM12 colon and in the test with MALME-3M melanoma was > 10 µM throughout. The TGI in the test with SF-539 CNS, in the test with SK-MEL-28 melanoma, in the test on SK-OV-3 ovarian, in the test on SR leukemia, in the test on T-47D breast and in the test on UACC-257 melanoma was > 10 µM in each case.
With `C=C(C(=O)O)[C@@H]1C[C@@H]2O[C@H]1[C@@H](O)[C@@H](C)CCCC(C)=CCC[C@@]2(C)O`, the TGI in the test with A549 NSCLC, in the test with COLO 205 colon, in the test with HCT-15 colon, in the test with HOP-62 NSCLC, in the test with KM12 colon and with MALME-3M melanoma was > 100 µM each time. In addition, the TGI is > 100 µM in the test with SF-539 CNS; > 100 µM in the test on SK-MEL-28 melanoma; > 100 µM in the test on SK-OV-3 ovarian; > 95 µM in the test on SR leukemia; > 100 µM in the test on T-47D breast; > 100 µM in the test on UACC-257 melanoma.
As to `COc1ccc(-n2c(N)c(C#N)[nH]c2=O)cc1`, the TGI in the test on A549 NSCLC, with COLO 205 colon, in the test on HCT-15 colon, with HOP-62 NSCLC, with KM12 colon and in the test with MALME-3M melanoma was > 10 µM throughout. In addition, the TGI in the test with SF-539 CNS, with SK-MEL-28 melanoma, in the test on SK-OV-3 ovarian, in the test with SR leukemia, in the test on T-47D breast and with UACC-257 melanoma was > 10 µM in each case.
Regarding `CC(=N\N)/C(C)=N/N=C(C)/C(C)=N/N`, the TGI with A549 NSCLC, in the test on COLO 205 colon, in the test with HCT-15 colon, in the test with HOP-62 NSCLC, in the test with KM12 colon and in the test on MALME-3M melanoma was > 100 µM in each case. The TGI in the test with SF-539 CNS, in the test with SK-MEL-28 melanoma, in the test on SK-OV-3 ovarian, with SR leukemia, in the test on T-47D breast and in the test with UACC-257 melanoma was > 100 µM each time.
For the compound `O=C1/C(=C\c2cccc(Oc3ccccc3)c2)SC(c2ccccc2)N1c1ccccc1` (stereo not drawn), the TGI in the test with A549 NSCLC, in the test on COLO 205 colon, in the test on HCT-15 colon, in the test on HOP-62 NSCLC, in the test with KM12 colon and with MALME-3M melanoma was > 100 µM each time. Moreover, the TGI was 93.6 µM in the test with SF-539 CNS; > 100 µM in the test on SK-MEL-28 melanoma; > 100 µM in the test on SK-OV-3 ovarian; 37.2 µM in the test with SR leukemia; > 100 µM in the test on T-47D breast; > 100 µM in the test with UACC-257 melanoma.
For `O=C(O)Cc1ccc(Nc2nc3cc(C(F)(F)F)ccc3nc2C(=O)O)cc1`, the TGI with A549 NSCLC, in the test with COLO 205 colon, in the test on HCT-15 colon, with HOP-62 NSCLC, in the test with KM12 colon and with MALME-3M melanoma was > 100 µM throughout. The TGI with SF-539 CNS, in the test with SK-MEL-28 melanoma, with SK-OV-3 ovarian, with SR leukemia, with T-47D breast and with UACC-257 melanoma was > 100 µM in each case.
For the compound `O=[N+]([O-])c1ccc2c(c1)N([O-])C1(CCCCC1)[N+]2=O`, the TGI was determined as 37 µM in the test on A549 NSCLC; 27.1 µM in the test with COLO 205 colon; 39.4 µM in the test on HCT-15 colon; 31 µM in the test on HOP-62 NSCLC; 42.4 µM with KM12 colon; 28.7 µM in the test with MALME-3M melanoma. Moreover, the TGI in the test on SF-539 CNS is 33.6 µM; in the test with SK-MEL-28 melanoma it was 34.5 µM; in the test on SK-OV-3 ovarian, 44.2 µM; in the test with SR leukemia it was 51.5 µM; in the test with T-47D breast, 64.7 µM; with UACC-257 melanoma, 29.4 µM.
Turning to `CN(C)CCNC(=O)c1ccc(NCCCN(C)CCCNc2ccc(C(=O)NCCN(C)C)c3[nH]c4ccccc4c(=O)c23)c2c(=O)c3ccccc3[nH]c12`, the TGI in the test with A549 NSCLC is 0.313 µM; in the test with COLO 205 colon, 0.294 µM; in the test with HCT-15 colon, 4.52 µM; with HOP-62 NSCLC, 0.459 µM; in the test with KM12 colon, 0.627 µM; with MALME-3M melanoma, 0.302 µM. Moreover, the TGI was determined as 2.24 µM in the test with SF-539 CNS; 1.23 µM with SK-MEL-28 melanoma; 0.427 µM with SK-OV-3 ovarian; 0.532 µM in the test with SR leukemia; 1.85 µM in the test with T-47D breast; 1.26 µM in the test on UACC-257 melanoma.
As for `NC(N)=NC(N)=Nc1ccc(S(=O)(=O)O)cc1`, the TGI with A549 NSCLC, with COLO 205 colon, in the test on HCT-15 colon, in the test with HOP-62 NSCLC, with KM12 colon and with MALME-3M melanoma was > 100 µM in each case. For the same compound, the TGI in the test on SF-539 CNS, in the test on SK-MEL-28 melanoma, in the test on SK-OV-3 ovarian, with SR leukemia, in the test on T-47D breast and in the test on UACC-257 melanoma was > 100 µM each time.
On to `O=C(O)C(O)C(O)C(=O)O` (stereo not drawn), for which the TGI in the test with A549 NSCLC, in the test with COLO 205 colon, in the test on HCT-15 colon, with HOP-62 NSCLC, in the test on KM12 colon and with MALME-3M melanoma was > 100 µM in each case. Besides, the TGI with SF-539 CNS, in the test on SK-MEL-28 melanoma, with SK-OV-3 ovarian, with SR leukemia, in the test on T-47D breast and in the test on UACC-257 melanoma was > 100 µM in each case.
On to `CCCCCCCCCCCCCCCCNC(=O)C(=O)/C=C(\O)c1ccc(C)cc1`, for which the TGI in the test with COLO 205 colon, in the test on HCT-15 colon, in the test with HOP-62 NSCLC, in the test on KM12 colon, with MALME-3M melanoma and in the test on SF-539 CNS was > 10 µM each time. Further, the TGI in the test on SK-MEL-28 melanoma, with SK-OV-3 ovarian, with SR leukemia, in the test with T-47D breast and in the test on UACC-257 melanoma was > 10 µM each time.
